The source of these data is patent US9464064B2, “HCV helicase inhibitors and methods of use thereof” (University of Kansas, priority 2011, dated 2016).

In one series the target is T1, NS3h_2a (Hepatitis C virus genotype 2a, UniProt Q99IB8).
T1 construct: truncated C-terminally His-tagged NS3 proteins lacking the N-terminal protease, called NS3h; His-tag (C); made in house
Briefly: RNA helicase assay (three-stranded RNA substrate). It counts as biochemical, hepatitis C virus genotype 2a(JFH1). How it is done: To act as antivirals in cells, it is also important for an HCV helicase inhibitor to inhibit the activity of the NS3h on RNA. […] As with protein specificity, no differences were uncovered regarding substrate specificity for any of the compounds tested. In other words, none of the compounds preferred to act either on DNA or RNA substrates.

For a further series, the target named is T2, NS3h_1b(con1) (Hepatitis C virus genotype 1b, UniProt Q9WMX2).
T2 construct: truncated C-terminally His-tagged NS3 proteins lacking the N-terminal protease, called NS3h; His-tag (C); made in house
T2 sequence (Q9WMX2 1192-1657): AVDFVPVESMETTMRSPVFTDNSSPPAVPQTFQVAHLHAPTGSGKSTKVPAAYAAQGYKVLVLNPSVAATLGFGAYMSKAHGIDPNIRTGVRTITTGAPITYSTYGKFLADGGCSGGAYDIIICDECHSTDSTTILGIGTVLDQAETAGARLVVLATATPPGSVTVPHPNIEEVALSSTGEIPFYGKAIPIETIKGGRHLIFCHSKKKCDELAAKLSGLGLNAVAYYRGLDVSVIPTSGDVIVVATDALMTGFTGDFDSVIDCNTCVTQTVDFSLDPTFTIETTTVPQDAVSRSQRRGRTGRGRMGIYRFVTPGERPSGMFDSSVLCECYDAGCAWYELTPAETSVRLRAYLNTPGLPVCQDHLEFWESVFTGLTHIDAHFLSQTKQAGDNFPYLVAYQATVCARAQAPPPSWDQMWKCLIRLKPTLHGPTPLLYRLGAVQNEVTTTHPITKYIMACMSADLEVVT
The series can be described thus: RNA-stimulated ATP hydrolysis, pH 7.5, HCV. The format is biochemical, hepatitis C virus genotype 1b(con1). Here is the method:
(§1) To compare the effect of compounds on HCV NS3h_1b (con1) to NS3h_DV2, reactions were performed with 2 nM of either enzyme in 25 mM Tris pH 7.5, 1.25 mM MgCl2, 1.0 mM ATP, 10% DMSO, 5 μg/ml BSA, 0.01% (v/v) TWEEN 20, 0.05 mM DTT, and 10 μM poly(U) RNA at 37° C.
To further profile compound specificity, it was determined whether the compounds would inhibit homologous NS3h expressed by the Dengue virus (NS3h_DV2). […] The same assays were also repeated with HCV NS3h_1b(con1) for comparison. […] However, most of the primuline derivatives were relatively potent inhibitors of RNA-stimulated ATP hydrolysis catalyzed by the Dengue enzyme under the same conditions.

Another series has as its target T3, NS3h_DV2 (Dengue virus type 2, UniProt P29990).
T3 construct: made in house
The series can be described thus: RNA-stimulated ATP hydrolysis, pH 7.5, Dengue. It counts as biochemical. To be noted: 10 μM poly(U) RNA, read-out: ATPase w/RNA NS3h_DV2 IC50 (μM) ± SD. Here is the method: as §1
To further profile compound specificity, it was determined whether the compounds would inhibit homologous NS3h expressed by the Dengue virus (NS3h_DV2). […] The same assays were also repeated with HCV NS3h_1b(con1) for comparison.

The nature of series [1]: Absorbance and fluorescence properties. The format is physicochemical. To be noted: for Absorbance ∈: extinction coefficient. The text has this: Most of the compounds isolated from the two yellow dyes were fluorescent, absorbing light around 340 nm, and emitting near 420 nm. Their extinction coefficient and peak absorption wavelengths increased as the length of the benzothiazole oligomer increased. Their relative fluorescence decreased with the length of the benzothiazole chain. None of the compounds absorbed light near either the absorption or emission wavelengths of the Cy5-labeled MBHA substrate, or the wavelengths where the fluorescence of ethidium bromide stained DNA, SYBER green I-stained DNA, NS3-catalyzed peptide cleavage, or ATP hydrolysis were measured.
When directly compared with P4, the semi-synthetic primuline derivatives have a sharper absorbance peak centered near 360 nm, and they emit 3-15 times more light when excited at their absorbance maximum. […] Some compounds, like 12, stained both the cytoplasm and nucleus, but they also stained glass coverslips.

In the next series the target is scNS4A-NS3 (Hepatitis C virus genotype 1b, UniProt Q9WMX2). Briefly: NS3 protease assay (ENZOLYTE 520), full-length. More on the design: other: average of two sets; There is also a His tag. The format is biochemical, hepatitis C virus genotype 1b(con1). Here is the method: All oligonucleotides were purchased from Integrated DNA Technologies (IDT, Coralville, Iowa). Primuline derivatives were synthesized and purified as described herein. Three different NS3 proteins were used in this study. Two were truncated C-terminally His-tagged NS3 proteins lacking the N-terminal protease, called NS3h, the third was a full-length NS3 with the portion of NS4A needed for protease activation fused to its N-terminus, called scNS4A-NS3 (Howe, et al. (1999) Protein Sci. 8:1332-41), and the fourth was a 23 kDa scNS4A-NS3 protease fragment lacking the helicase domains, called scNS4A-NS3p (Protein One, Rockville, Md.). NS3h was expressed from two different HCV strains. NS3h_1b(con1) was from the con1 strain of genotype 1b (GENBANK accession AB114136), and NS3h_2a(JFH1) was from the JFH1 strain of HCV genotype 2a (GENBANK accession AJ238799). […] His-tagged recombinant NS3h_1b(con1), NS3h_2a(JFH1), and scNS4A-NS3 (also from genotype 1b(con1)) were expressed, and purified as previously described (Frick, et al. (2010) supra; Lam, et al. (2003) J. Virol. 77:3950-3961). The scNS4A-NS3p (genotype 1b) was from Protein One. A plasmid expressing NS3h from dengue virus strain 2 (NS3h_DV2)(GENBANK accession 2BMF) is known in the art (Xu, et al. (2005) J. Virol. 79:10278-10288), and used to express and purify NS3h_DV2 (Belon, et al. (2010) supra)
Sequence of scNS4A-NS3 (Q9WMX2 1027-1657): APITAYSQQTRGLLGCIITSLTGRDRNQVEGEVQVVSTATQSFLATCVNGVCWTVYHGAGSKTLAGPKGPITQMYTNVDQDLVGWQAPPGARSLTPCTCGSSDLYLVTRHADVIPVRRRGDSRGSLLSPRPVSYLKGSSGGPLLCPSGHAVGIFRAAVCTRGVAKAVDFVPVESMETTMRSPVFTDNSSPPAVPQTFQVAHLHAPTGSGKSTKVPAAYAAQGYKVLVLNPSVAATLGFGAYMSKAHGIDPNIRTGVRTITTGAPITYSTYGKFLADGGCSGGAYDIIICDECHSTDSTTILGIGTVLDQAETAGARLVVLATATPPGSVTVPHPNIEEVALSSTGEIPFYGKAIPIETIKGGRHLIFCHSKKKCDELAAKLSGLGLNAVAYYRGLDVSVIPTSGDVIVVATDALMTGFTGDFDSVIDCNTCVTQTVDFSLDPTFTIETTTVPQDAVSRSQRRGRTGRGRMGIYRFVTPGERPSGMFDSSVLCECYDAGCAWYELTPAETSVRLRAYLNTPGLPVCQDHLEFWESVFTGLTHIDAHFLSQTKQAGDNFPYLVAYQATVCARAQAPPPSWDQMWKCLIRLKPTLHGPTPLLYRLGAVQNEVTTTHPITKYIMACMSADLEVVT
All NS3 protease assays were carried out using the 5-Carboxyfluorescein-labeled substrate from the AnaSpec. ENZOLYTE 520 Protease Assay Kit (AnaSpec, San Jose, Calif.). Each assay contained 5 nM scNS4A-NS3 or 50 nM scNS4A-NS3p, […], 5% DMSO and 1× Anaspec HCV protease assay buffer. Assays were carried out in a total volume of 20 μl in black 384-well plates with fluorescence at 520 nm measured using a BMG FLUOstar Omega fluorescence spectrophotometer. Reactions were performed with eight concentrations of a two-fold dilution series of each compound (in duplicate) starting at 100 μM.

T1 sequence (Q99IB8 1196-1661): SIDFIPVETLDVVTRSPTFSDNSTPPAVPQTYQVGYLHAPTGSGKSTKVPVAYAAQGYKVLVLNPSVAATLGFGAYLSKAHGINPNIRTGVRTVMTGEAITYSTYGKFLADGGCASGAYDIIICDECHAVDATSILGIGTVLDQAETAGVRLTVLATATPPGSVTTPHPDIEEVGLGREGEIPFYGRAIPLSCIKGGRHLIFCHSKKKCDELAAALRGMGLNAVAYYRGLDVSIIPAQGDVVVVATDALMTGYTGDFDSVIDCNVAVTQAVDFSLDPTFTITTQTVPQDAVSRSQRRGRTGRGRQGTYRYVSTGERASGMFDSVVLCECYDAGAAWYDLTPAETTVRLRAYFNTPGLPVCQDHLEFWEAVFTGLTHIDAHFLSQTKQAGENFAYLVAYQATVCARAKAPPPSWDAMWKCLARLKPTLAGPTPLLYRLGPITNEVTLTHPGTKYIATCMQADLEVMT
T3 sequence (P29990 1646-2093): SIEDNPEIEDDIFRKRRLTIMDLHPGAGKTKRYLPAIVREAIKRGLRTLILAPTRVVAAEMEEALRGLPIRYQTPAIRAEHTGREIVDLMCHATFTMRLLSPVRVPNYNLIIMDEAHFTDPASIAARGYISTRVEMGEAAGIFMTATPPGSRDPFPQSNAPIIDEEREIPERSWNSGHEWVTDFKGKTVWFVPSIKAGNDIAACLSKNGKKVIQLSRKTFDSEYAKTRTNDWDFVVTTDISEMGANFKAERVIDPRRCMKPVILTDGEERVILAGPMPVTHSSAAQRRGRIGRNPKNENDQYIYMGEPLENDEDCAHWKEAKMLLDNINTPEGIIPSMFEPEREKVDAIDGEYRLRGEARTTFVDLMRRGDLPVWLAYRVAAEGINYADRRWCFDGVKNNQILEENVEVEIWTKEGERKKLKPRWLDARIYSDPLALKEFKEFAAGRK

In the case of `Cc1ccc2nc(-c3ccc4nc(-c5ccc(NC(=O)c6cc(C(F)(F)F)ccc6F)cc5)sc4c3)sc2c1S(=O)(=O)O` [Compound 25, 2′-(4-(2-fluoro-5-(trifluoromethyl)benzamido)phenyl)-6-methyl-[2,6′-bibenzo[d]thiazole]-7-sulfonic acid], the IC50 at NS3h_2a is 10 ± 3 µM. For the same molecule, on NS3h_1b(con1), the IC50 was found to be 19 ± 2 µM. Moreover, the IC50 on NS3h_DV2 stood at 7 ± 0.1 µM. Also, in series [1], the “Absorbance λmax” value is 355 nm, the “Fluorescence Emmax” value was found to be 497 nm, the “Fluorescence RFU@ 10 μM” value came to 159 RFU and the “Absorbance ∈” value is recorded as 41,750 M^−1cm^−1. The same molecule returned an IC50 against scNS4A-NS3 of 51 ± 25 µM.
For the molecule `Cc1ccc2nc(-c3ccc4nc(-c5ccc(NC(=O)c6ccc7ccccc7c6)cc5)sc4c3)sc2c1S(=O)(=O)O` [Compound 33, 2′-(4-(2-naphthamido)phenyl)-6-methyl-[2,6′-bibenzo[d]thiazole]-7-sulfonic acid], the IC50 is 3 ± 2 µM against NS3h_2a, 52 ± 6 µM against NS3h_1b(con1), 3 ± 1 µM at NS3h_DV2 and more than 100 µM against scNS4A-NS3. Besides, in series [1], the “Absorbance λmax” value amounted to 359 nm. The “Fluorescence Emmax” value in series [1] was 496 nm. Further, in series [1], the “Fluorescence RFU@ 10 μM” value came out at 236 RFU. Besides, in series [1], the “Absorbance ∈” value is 63,450 M^−1cm^−1.
Consider `Cc1ccc2nc(-c3ccc4nc(-c5ccc(N)cc5)sc4c3)sc2c1S(=O)(=O)O` [Compound P2a, 2′-(4-aminophenyl)-6-methyl-[2,6′-bibenzo[d]thiazole]-7-sulfonic acid], for which, at NS3h_2a, the IC50 is 32 ± 14 µM. The IC50 against NS3h_1b(con1) is more than 200 µM. The IC50 on NS3h_DV2 was determined as 32 ± 17 µM. Moreover, in series [1], the “Absorbance λmax” value turned out to be 366 nm, the “Fluorescence Emmax” value came out at 553 nm, the “Fluorescence RFU@ 10 μM” value worked out at 15 RFU and the “Absorbance ∈” value is given as 38,550 M^−1cm^−1. This molecule also displayed an IC50 against scNS4A-NS3 of more than 100 µM.
